This is an account of results in patent publication US5994323A (priority 1997, dated 1999).

In data set [1] the test system is zinc precipitated Aβ. Nature of the data set: Chelating ability: washing of zinc-aggregated synthetic Aβ on nylon membrane, anti-Aβ 6E10 / ECL. It counts as biochemical. The note with it: 10 ng synthetic Aβ aggregated with 25 μM ZnCl; wash with TBS containing 2 μM chelator; 100% for TBS alone. The protocol: Samples of 10 ng synthetic Aβ were placed in microtitre wells and caused to aggregate by the addition of 25 μM ZnCl. The aggregates were then transferred to a 0.2 μm nylon membrane by filtration. […] The membrane was fixed, probed with the anti Aβ monoclonal antibody 6E10 and developed for exposure to ECL-film. The transmittance of the ECL-film was measured and the relative signal strength calculated based on 100% for TBS alone.

The test system of data set [2] is zinc precipitated Aβ. Nature of the data set: Resolubilization of zinc-aggregated Aβ in TBS. Format: biochemical. The note with it: 2.5 μM Aβ in TBS pH 7.4, 30 μM zinc (43% in solution), then 120 μM clioquinol; 95% soluble before zinc. The protocol: The ability of clioquinol to resolubilize zinc-aggregated Aβ was assessed. A 2.5 μM solution of Aβ in TBS at a pH of 7.4 was prepared. 95% of the Aβ was maintained in a soluble state.

Data set [3] is described as follows: Solubility in water / aqueous solutions. It counts as physicochemical.
A further data set deals with Aβ. Nature of the data set: Resolubilization of amyloid aggregates in Alzheimer's disease brain homogenates (Western blot of supernatants). Format: biochemical, human. The note with it: frontal lobe neocortex, clioquinol/PBS at 100%, 10% and 1% (100%=800 nM). (A western blot detects proteins with antibodies after separation by electrophoresis.)
Data set [4] concerns vitamin B12 ([57Co]-cyanocobalamine). Nature of the data set: Influence of clioquinol on vitamin B12 in vivo: tissue radioactivity after [57Co]-cyanocobalamine injection. Particulars: mice, clioquinol 50 mg/kg/day injected for three days, then [57Co]-cyanocobalamine, sacrificed after two days, ±SEM. On the procedure: After three days, all of the mice were injected with [^57 Co]-cyanocobalamine. After two days, the animals were sacrificed, and the brain, liver and kidney were dissected and counted in a gamma-counter as thousand cpm/g tissue (wet weight)±SEM. The radioactivities in each of the groups are stated in Table 1 below: […]

For data set [5] the following is noted: assumed value; 1:1 mixtures of decane/clioquinol with PBS pH 7.4; cited from earlier work.
The nature of data set [6]: Dissolution of clioquinol in n-decane and partition into PBS pH 7.4. It counts as physicochemical. On the procedure: The resolubilization of amyloid aggregates by clioquinol was studied. […] The undissolved material was allowed to settle. […] 100 ml of the (light yellow) supernatant was agitated together with 100 ml of PBS pH 7.4 and the phases allowed to separate. The PBS (lower phase) was collected and filtered to remove the residue which formed at the phase interface upon extraction with the organic solvent.

The conditions of data set [7]: injected preparations, dosages of 10-20 mg/kg; cited from earlier work.
The nature of data set [8]: 1H NMR study of the interaction of vitamin B12 with clioquinol glucuronide. The note with it: 2.6 mM vitamin B12 + 10 mM clioquinol glucuronide, buffered water pH 6.5, 20° C. It counts as binding. On the procedure:
Three different solutions were prepared and their ^1 H NMR spectra were recorded in a DRX 400 MHz spectrophotometer at 20° C. Solution a) contained free vitamin B12 (hydroxycobalamin) in a concentration of 2.6 mM.
In FIGS. 1A-1C the spectra of the three solutions a, b and c are presented for the aromatic region (5.5-9.8 ppm). The differences are quite small but obvious in the expansion shown of FIGS. 2A-2C and FIGS. 3B-3C respectively.

Consider `O=C(O)CN(CCN(CC(=O)O)CC(=O)O)CC(=O)O` [EDTA], for which the “Relative signal strength of Aβ remaining on membrane” value with zinc precipitated Aβ [1] worked out at 66%.
Turning to `Oc1c(I)cc(Cl)c2cccnc12` [clioquinol, 5-chloro-7-iodo-8 hydroxyquinoline], the “Soluble Aβ after addition to zinc precipitated Aβ” value with zinc precipitated Aβ [2] worked out at 70%. For the same molecule, the “Solubility in water / aqueous solutions” value in data set [3] is “cannot be dissolved in aqueous solutions”. The “Solubilization of Aβ from Alzheimer's disease brain homogenate” value in the data set on Aβ was “effective in promoting the solubilization of Aβ”. In addition, the Radioactivity in brain in [4] (control 9.4 ± 0.9) is recorded as 8.4 ± 1.5 thousand cpm/g tissue (wet wei. Further, the Radioactivity in liver in [4] (control 97 ± 8) is 85 ± 21 thousand cpm/g tissue (wet wei. Besides, in data set [4] (control 895 ± 207), the Radioactivity in kidney is given as 252 ± 61 thousand cpm/g tissue (wet wei. Further, the “Partitioning coefficient with PBS” value in data set [5] was 1/1750. Further, in [6] (5.3 g suspended in 200 ml n-decane), the “Fraction of clioquinol dissolved in n-decane” value is 2%. For the same molecule, the “Concentration of clioquinol in the PBS” value in [6] (PBS pH 7.4 extract of the n-decane supernatant, calculated from assumed 2% dissolution and partitioning coefficient) is given as 800 nM. Further, the “Concentration in the brain” value in data set [7] is recorded as around 20 μl/ml.
Turning to `COC(=O)[C@H]1O[C@@H](Oc2c(I)cc(Cl)c3cccnc23)[C@H](OC(C)=O)[C@@H](OC(C)=O)[C@@H]1OC(C)=O` [clioquinol glucuronide, methyl (5-chloro-7-iodo-quinolyl-2',3',4'tri-O-acetyl-glucopyranosid)uronate], in data set [8], the “Interaction with vitamin B12 (shift of 1H NMR resonances)” value is on record as “interaction”. Also, the “Solubility in water / aqueous solutions” value in data set [3] is “soluble in water”.
